Laboratory results published in patent publication US8568762B2, “Methods for modifying the surface of an implant to provide said surface with calcium” (Biotechnology Institute, I Mas D, S.L., priority 2010, dated 2013).

Key:
blood plasma [1] = test: Test 4b: coagulation in the presence of surfaces with or without calcium (titanium tubes, absorbance 450 nm); assay type: biochemical, human; conditions: surfaces with no calcium; 50 mM NaOH or 0.9 wt. % NaCl treatment, not dried
Description: Blood plasma was prepared by extracting blood from three healthy patients. A technique similar to the one described in patent EP1066838B1 was applied to obtain a Plasma Rich in Growth Factors (PRGF): the blood was centrifuged for eight minutes at 460 G; the column of plasma was then separated from the red globules and white globules by manual pipetting (unlike the protocol described in EP1066838B1, in this case, due to the criteria of volume for carrying out the experiments, the entire plasma column was selected, not merely the part richer in platelets). Both the red globules and the white globules were discarded. First of all, the surfaces were prepared. For the study of the coagulation, in which the excess surface calcium was to be measured, hollow tubes were used to enable the reader beam to move longitudinally. […] They were ultrasound-washed with Triton X-100, acetone and ethanol, for 20 minutes. Eight tubes were used per concentration. The solutions were prepared. […] Immediately after the tubes were filled, absorbance (optical density) was measured with a spectrophotometer at a wavelength of 450 nm. […] This gradual cross-linking gradually blocks the passage of the reader beam, the absorbance therefore increasing. […] It is at this point that the absorbance (optical density) values are collated so that comparisons can be made between the various samples.

blood plasma [2] = test: Test 4a: coagulation as a function of the volume concentration of calcium (absorbance 450 nm); assay type: biochemical, human; conditions: without surfaces; calcium in plasma between 2.5 and 45.6 mM
Description: Blood plasma was prepared by extracting blood from three healthy patients. A technique similar to the one described in patent EP1066838B1 was applied to obtain a Plasma Rich in Growth Factors (PRGF): the blood was centrifuged for eight minutes at 460 G; the column of plasma was then separated from the red globules and white globules by manual pipetting (unlike the protocol described in EP1066838B1, in this case, due to the criteria of volume for carrying out the experiments, the entire plasma column was selected, not merely the part richer in platelets). Both the red globules and the white globules were discarded.
For the purpose of determining the ranges of concentration of calcium ions in plasma at which coagulation is initiated, 10 μl of CaCl2.EtOH were placed in concentrations of between 28 and 2000 mM in the bottom of a multi-well plate comprising 96 wells. […] Absorbance was measured immediately in the manner described hereafter.
Immediately after the tubes were filled, absorbance (optical density) was measured with a spectrophotometer at a wavelength of 450 nm. […]
This gradual cross-linking gradually blocks the passage of the reader beam, the absorbance therefore increasing. […] It is at this point that the absorbance (optical density) values are collated so that comparisons can be made between the various samples.

[3] = ambient temperature; cited from earlier work

Row | SMILES | degree of coagulation inside titanium tubes normalized to positive control (blood plasma [1]) | final degree of coagulation in volume, normalized with respect to the positive control (blood plasma [2]) | solubility in water [3]
1 | [Cl-].[Na+] [NaCl, sodium chloride] | lack of coagulation is evident |  | 
2 | [Na+].[OH-] [NaOH, sodium hydroxide] | lack of coagulation is evident |  | 
3 | [Ca+2].[Cl-].[Cl-] [CaCl2, calcium chloride] |  | sometimes even greater than that of the positive control | > 60 g/100 mL
